Target: GroEL in complex with its cofactor GroES (Escherichia coli, UniProt P0A6F5)
Settings: with GroES (singly capped); no AlFx; labelled compound

Sequence of GroEL in complex with its cofactor GroES (P0A6F5 2-548): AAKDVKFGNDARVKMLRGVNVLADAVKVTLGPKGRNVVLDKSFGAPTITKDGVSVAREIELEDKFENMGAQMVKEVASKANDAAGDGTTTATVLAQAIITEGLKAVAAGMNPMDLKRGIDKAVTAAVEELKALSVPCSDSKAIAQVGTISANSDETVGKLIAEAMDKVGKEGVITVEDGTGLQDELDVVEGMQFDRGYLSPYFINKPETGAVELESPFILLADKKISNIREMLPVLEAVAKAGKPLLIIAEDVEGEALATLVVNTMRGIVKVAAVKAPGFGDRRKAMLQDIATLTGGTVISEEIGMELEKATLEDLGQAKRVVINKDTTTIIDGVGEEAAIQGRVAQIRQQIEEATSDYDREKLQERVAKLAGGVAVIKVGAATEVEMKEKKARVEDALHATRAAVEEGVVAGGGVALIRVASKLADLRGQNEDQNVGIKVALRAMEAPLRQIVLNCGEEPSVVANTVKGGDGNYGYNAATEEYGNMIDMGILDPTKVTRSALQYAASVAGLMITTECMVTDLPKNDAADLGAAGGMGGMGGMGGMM
Sequence of GroEL in complex with its cofactor GroES (P0A6F9 whole entry, further chain): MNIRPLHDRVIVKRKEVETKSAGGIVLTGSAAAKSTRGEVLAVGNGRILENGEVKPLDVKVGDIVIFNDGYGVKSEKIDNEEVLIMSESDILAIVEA

Nc1ncnc2c1ncn2[C@@H]1O[C@H](COP(=O)(O)OP(=O)(O)OP(=O)(O)O)[C@@H](O)[C@H]1O [ATP]
nucleotides per GroEL 14-mer: ~ 7 nucleotides per GroEL 14-mer
